Laboratory results taken from US11701368B2 (EYE CO PTY LTD, priority 2018, dated 2023).
Like-named read-outs stand apart in the source and are kept apart here.

Key:
[1] = target: T1, mineralocorticoid receptor (Homo sapiens, UniProt P08235); assay: Mineralocorticoid receptor activity (MR potency) of corticosterones; settings: relative potency, hydrocortisone (cortisol) = 1
T1 sequence (P08235 1-984): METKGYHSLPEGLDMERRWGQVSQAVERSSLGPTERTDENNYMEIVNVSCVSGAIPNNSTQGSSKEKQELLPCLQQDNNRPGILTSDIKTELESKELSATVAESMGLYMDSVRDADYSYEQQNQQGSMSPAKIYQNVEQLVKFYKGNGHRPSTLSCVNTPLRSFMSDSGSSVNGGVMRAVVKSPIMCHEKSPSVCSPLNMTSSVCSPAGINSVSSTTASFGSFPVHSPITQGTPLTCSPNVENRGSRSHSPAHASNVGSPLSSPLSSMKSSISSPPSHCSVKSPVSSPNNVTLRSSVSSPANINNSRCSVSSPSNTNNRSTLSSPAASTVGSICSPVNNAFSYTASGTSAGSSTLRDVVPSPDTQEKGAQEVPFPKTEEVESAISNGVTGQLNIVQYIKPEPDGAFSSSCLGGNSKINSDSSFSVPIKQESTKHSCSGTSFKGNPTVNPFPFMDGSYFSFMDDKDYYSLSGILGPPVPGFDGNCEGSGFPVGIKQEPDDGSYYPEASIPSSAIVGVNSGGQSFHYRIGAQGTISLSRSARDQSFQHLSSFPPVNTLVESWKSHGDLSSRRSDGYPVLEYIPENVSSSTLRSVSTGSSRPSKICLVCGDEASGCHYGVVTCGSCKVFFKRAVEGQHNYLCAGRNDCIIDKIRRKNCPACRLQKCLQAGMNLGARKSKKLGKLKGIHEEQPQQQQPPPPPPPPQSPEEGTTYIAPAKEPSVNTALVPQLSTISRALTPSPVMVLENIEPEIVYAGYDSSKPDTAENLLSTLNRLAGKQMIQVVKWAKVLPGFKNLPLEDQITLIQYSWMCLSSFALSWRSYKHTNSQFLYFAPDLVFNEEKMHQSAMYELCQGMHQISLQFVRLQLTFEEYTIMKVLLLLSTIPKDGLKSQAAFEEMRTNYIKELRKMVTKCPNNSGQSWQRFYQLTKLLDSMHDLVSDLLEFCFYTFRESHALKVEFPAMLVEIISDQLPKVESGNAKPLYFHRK

[2] = test system: New Zealand albino rabbit eyes; assay: Intravitreal toxicology of fludrocortisone acetate in rabbits; settings: every 4 weeks; based on difference in vitreous volume between man and rabbit
Procedure: (§1) All animals were examined before and after injection using the indirect ophthalmoscope and slit-lamp biomicroscopy. Electroretinography (ERG) was performed on all animals before intravitreal injection and two weeks after injection. The animals were re-examined at this time by indirect ophthalmoscopy and slit-lamp biomicroscopy and were euthanized. The eyes were enucleated and examined with light microscopy.
(§2) Surgeries were performed on the eyes of 25 New Zealand white rabbits. […] The control eyes received 0.1 ml of sterile BSS. All animals were examined before and after injection using indirect ophthalmoscope and slit-lamp biomicroscopy. Electroretinography (ERG) was performed on all animals prior to intravitreal injection and two weeks after injection. The animals were re-examined at this time by indirect ophthalmoscope and slit-lamp biomicroscopy and were euthanized. Their eyes were enucleated and examined with light microscopy.

rat model of dry AMD = settings: compared with TA; Provis et al.; cited from earlier work
glucocorticoid receptor = target: T2, glucocorticoid receptor (Homo sapiens, UniProt P04150); settings: relative to cortisol; cited from earlier work
T2 sequence (P04150 1-777): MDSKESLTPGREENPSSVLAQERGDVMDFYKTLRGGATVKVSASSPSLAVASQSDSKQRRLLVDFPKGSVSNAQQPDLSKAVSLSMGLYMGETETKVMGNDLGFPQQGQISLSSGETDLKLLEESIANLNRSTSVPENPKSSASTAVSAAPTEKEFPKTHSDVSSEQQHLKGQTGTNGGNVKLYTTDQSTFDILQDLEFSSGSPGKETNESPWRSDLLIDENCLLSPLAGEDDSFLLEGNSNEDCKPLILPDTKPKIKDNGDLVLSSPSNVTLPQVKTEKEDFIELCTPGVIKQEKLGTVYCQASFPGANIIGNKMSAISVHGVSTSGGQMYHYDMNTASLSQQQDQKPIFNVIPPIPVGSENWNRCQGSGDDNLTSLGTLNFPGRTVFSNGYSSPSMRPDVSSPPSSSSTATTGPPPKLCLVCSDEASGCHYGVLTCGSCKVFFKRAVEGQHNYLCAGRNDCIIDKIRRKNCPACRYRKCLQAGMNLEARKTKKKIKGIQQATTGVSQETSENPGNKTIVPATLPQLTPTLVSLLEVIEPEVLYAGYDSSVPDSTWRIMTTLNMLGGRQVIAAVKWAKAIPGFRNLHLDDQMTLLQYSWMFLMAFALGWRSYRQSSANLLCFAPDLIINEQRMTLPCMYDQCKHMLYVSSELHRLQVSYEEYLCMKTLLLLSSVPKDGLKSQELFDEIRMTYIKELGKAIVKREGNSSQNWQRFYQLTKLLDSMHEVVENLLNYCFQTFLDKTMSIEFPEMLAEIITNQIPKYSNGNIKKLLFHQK

[3] = test system: New Zealand albino rabbit eyes; settings: cited from earlier work; for ERG in the other groups / other eyes: intravitreal 400 μg, 1 mg, 2 mg/0.1 ml and remaining eyes; for time by which all aggregates disappeared: intravitreal
[4] = test system: New Zealand albino rabbit eyes; settings: in vivo
Procedure: as §1, §2

[5] = target: T1, mineralocorticoid receptor; settings: relative to cortisol; cited from earlier work

CC(=O)OCC(=O)[C@@]1(O)CC[C@H]2[C@@H]3CCC4=CC(=O)CC[C@]4(C)[C@@]3(F)[C@@H](O)C[C@@]21C [Fludrocortisone acetate, 9-α-Fiuoro-11β. 17α, 21-trihydroxy-4-pregnene-3, 20 dione acetate]
MR potency [1]: 200
human equivalent dose [2]: 67 mg/eye
preventing cell death, macrophage recruitment, preserving a- and b-wave ERG amplitude (rat model of dry AMD): superior to TA
glucocorticoid activity, times higher than cortisol (glucocorticoid receptor): ten
histological examination of retinal sections (light microscopy) ([3]; 400 μg to 4 mg/0.1 ml): no evidence of toxicity or vacuolization except for one eye in the 4 mg group
IOP ([3]; all groups): normal
ERG in the other groups / other eyes ([3]; two weeks after injection): normal ERG
ERG in the other groups / other eyes ([3]; two weeks after injection, listed as FCA): no other problems of reductions in ERG
eyes with intravitreal haemorrhage and reduced ERG ([3]; intravitreal 4 mg/0.1 ml, 25 normal rabbits): Two
eyes with decreases in ERG ([3]; intravitreal 4 mg/0.1 ml, two weeks after injection): one
time by which all aggregates disappeared ([3]; 2-mg group): 22 ± 8 days
time by which all aggregates disappeared ([3]; 4-mg group): 33 ± 7 days
inflammation in anterior or posterior segment (slit lamp biomicroscopy, indirect ophthalmoscopy) ([3]; up to 40 days of observations): did not show any evidence of significant inflammation
tolerability in a panel of animal toxicology studies [4]: well-tolerated
mineralocorticoid effect, times higher than cortisol [5]: 250 times
